Laboratory results as given in patent publication US6656022B2, “Method for polishing a semiconductor substrate member” (Hitachi, Ltd., priority 2001, dated 2003).
Like-named read-outs stand apart in the source and are kept apart here.

Assay: Solubility of abrasive-grain material at normal temperature
Assay type: physicochemical
[1] = abrasive-grain material, normal temperature (25° C.)

| Structure (SMILES) | Solubility [1] [%] | Solubility [%] |
| --- | --- | --- |
| O=S(=O)([O-])[O-].O=S(=O)([O-])[O-].O=S(=O)([O-])[O-].[Ce+3].[Ce+3] [Example 4, Ce2(SO4)3] | 7.59 |  |
| [Cl][Cu][Cl] [Example 5, CuCl2] | 42.8 |  |
| O=C(O)CC(=O)O [Example 12, malonic acid] | 32.2 |  |
| OC[C@H]1O[C@@](CO)(O[C@H]2O[C@H](CO)[C@@H](O)[C@H](O)[C@H]2O)[C@@H](O)[C@@H]1O [Example 11, sucrose] | 67.0 |  |
| O=S(=O)([O-])[O-].[Cu+2] [Example 6, CuSO4] |  | 18.2 |
